We go through 11 substances from patent US7998940B2, “Aptamers to von Willebrand factor and their use as thrombotic disease therapeutics” (Archemix Corp., priority 2004, dated 2011).

Read-outs that look alike come from different tables or passages of the source. Oligonucleotides are written 5' to 3', each unit as a sugar letter and its base; * is a phosphorothioate linkage, no mark a phosphodiester; rarer units and linkages stand in square brackets, end groups in braces. Plain capitals give the bases only. [invdT] = inverted (3'-3') thymidine; d = 2'-deoxy (DNA); m = 2'-O-methyl

The test system of the data set is full length human vWF (SEQ ID NO 7). Description: dot blot KD determination and extent of binding, full length human vWF.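 As to all read-outs here: dot blot binding of aptamers to full length human vWF across a protein titration, incubated 30 minutes at room temperature in 1x DPBS with BSA.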 As to conditions: for % binding @ 100 nM vWF: extent of aptamer binding at 100 nM full length human vWF; for Kd: full length human vWF, read-out: KD.
[1] abbreviates: Phase 1 modification, dot blot, 8 point protein titration.

The Kd is the free concentration of one partner at which half of the binding sites on the other are occupied at equilibrium, for simple one-to-one binding. Consider “ARC1225: ARC1172 with one residue replaced by 2'-O methyl residue (dGdGdCdGdTdGdCdAdGdTdGdCdCdTdTdCdGdGdCdCdGdTdGdCdGdGdTdGdCdCdTmCdCdGdTdCdAdCdGdCdC[invdT]; aptamer)”, for which the “% binding @ 100 nM vWF” value (Phase 1 modification) is listed as 16%. Further, the Kd under setting [1] was 11 nM.
In the case of “ARC1227: ARC1172 with one residue replaced by 2'-O methyl residue (dGdGdCdGdTdGdCdAdGdTdGdCdCdTdTdCdGdGdCdCdGdTdGdCdGdGdTdGdCdCdTdCdCmGdTdCdAdCdGdCdC[invdT]; aptamer)”, the “% binding @ 100 nM vWF” value (Phase 1 modification) is recorded as 40%. Besides, the Kd under setting [1] is 3 nM.
With “ARC1232: ARC1172 with one residue replaced by 2'-O methyl residue (dGdGdCdGdTdGdCdAdGdTdGdCdCdTdTdCdGdGdCdCdGdTdGdCdGdGdTdGdCdCdTdCdCdGdTdCdAdCmGdCdC[invdT]; aptamer)”, the “% binding @ 100 nM vWF” value (Phase 1 modification) stood at 51%. Under setting [1], the Kd is 1 nM.
“ARC1224: ARC1172 with one residue replaced by 2'-O methyl residue (dGdGdCdGdTdGdCdAdGdTdGdCdCdTdTdCdGdGdCdCdGdTdGdCdGdGdTdGdCdCmUdCdCdGdTdCdAdCdGdCdC[invdT]; aptamer)”: under “Phase 1 modification”, the “% binding @ 100 nM vWF” value is 47%. Moreover, the equilibrium dissociation constant (Kd) under setting [1] amounted to 0.5 nM.
The matching figures for “ARC1209: ARC1172 with one residue replaced by 2'-O methyl residue (DNA dGdGdCdGdTdGdCdAdGdTdGdCdCdTdTmCdGdGdCdCdGdTdGdCdGdGdTdGdCdCdTdCdCdGdTdCdAdCdGdCdC[invdT]; aptamer)”: 44% and 2 nM.
For “mGmGmCmGmUdGdCdAmGmUmGmCmCmUmUmCmGmGmCdCdGTdGdCdGdGTdGdCdCTdCdCdGTdCmAmCmGmCmC-3T (mGmGmCmGmUdGdCdAmGmUmGmCmCmUmUmCmGmGmCdCdGdTdGdCdGdGdTdGdCdCdTdCdCdGdTdCmAmCmGmCmC[invdT]; aptamer) [ARC1341]”, where the note is “Phase 2 modification”, the “% binding @ 100 nM vWF” value worked out at 26% and the Kd was 22.5 nM.
The corresponding values for “mGmGmCmGmUdGdCdAdGTdGdCdCTTdCdGdGdCdCdGTdGdCdGdGTdGdCdCTdCdCdGTdCmAmCmGmCmC-3T (mGmGmCmGmUdGdCdAdGdTdGdCdCdTdTdCdGdGdCdCdGdTdGdCdGdGdTdGdCdCdTdCdCdGdTdCmAmCmGmCmC[invdT]; aptamer) [ARC1338]” are 21% and 7.4 nM.
On to “ARC1239: ARC1172 with composite 2'-O methyl replacements in the stem regions (dGdGdCdGdTdGdCdAdGdTdGmCmCdTdTdCdGdGmCdCdGdTdGdCdGdGdTdGdCdCdTdCdCdGdTdCdAdCdGdCdC[invdT]; aptamer)”, for which the “% binding @ 100 nM vWF” value (Phase 1 modification) was found to be 37%. In addition, under setting [1], the Kd worked out at 5 nM.
On to “ARC1204: ARC1172 with one residue replaced by 2'-O methyl residue (DNA dGdGdCdGdTdGdCdAdGdTmGdCdCdTdTdCdGdGdCdCdGdTdGdCdGdGdTdGdCdCdTdCdCdGdTdCdAdCdGdCdC[invdT]; aptamer)”, for which, for the setting “Phase 1 modification”, the “% binding @ 100 nM vWF” value is reported as 45%. In addition, under setting [1], the Kd was 2 nM.
Consider “ARC1226: ARC1172 with one residue replaced by 2'-O methyl residue (dGdGdCdGdTdGdCdAdGdTdGdCdCdTdTdCdGdGdCdCdGdTdGdCdGdGdTdGdCdCdTdCmCdGdTdCdAdCdGdCdC[invdT]; aptamer)”, for which, for the setting “Phase 1 modification”, the “% binding @ 100 nM vWF” value amounted to 25%. The Kd under setting [1] stood at 12 nM.
For the substance “ARC1207: ARC1172 with one residue replaced by 2'-O methyl residue (DNA dGdGdCdGdTdGdCdAdGdTdGdCdCmUdTdCdGdGdCdCdGdTdGdCdGdGdTdGdCdCdTdCdCdGdTdCdAdCdGdCdC[invdT]; aptamer)”, the “% binding @ 100 nM vWF” value (Phase 1 modification) is on record as 54%. In addition, the Kd under setting [1] turned out to be 2 nM.
